Each structure is given as a SMILES string. Converted amounts (≈) assume the structure as drawn.

Type in all cases: functional
The subject of assay [1] is Cryptococcus neoformans. The assay can be described thus: Antifungal activity against Cryptococcus neoformans LA314 assessed as reduction in fungal cell growth incubated for 48 hrs by broth microdilution method. As to conditions: LA314, 48 h. (Dilution methods test growth across graded concentrations, often in twofold steps.)
Assay [2] deals with Nakaseomyces glabratus. The assay can be described thus: Antifungal activity against Candida glabrata assessed as reduction in fungal cell growth incubated for 48 hrs by broth microdilution method.
Assay [3] has as its system Candida parapsilosis. The assay can be described thus: Antifungal activity against Candida parapsilosis ATCC 22019 assessed as reduction in fungal cell growth incubated for 48 hrs by broth microdilution method. As to conditions: Lodderomyces parapsilosis, ATCC 22019, 48 h.
The subject of assay [4] is Pichia kudriavzevii. The assay can be described thus: Antifungal activity against Candida krusei assessed as reduction in fungal cell growth incubated for 48 hrs by broth microdilution method.
Assay [5] relates to Candida albicans. Kind of assay: Antifungal activity against Candida albicans assessed as reduction in fungal cell growth incubated for 48 hrs by broth microdilution method.
Assay [6] relates to Candida tropicalis. Kind of assay: Antifungal activity against Candida tropicalis assessed as reduction in fungal cell growth incubated for 48 hrs by broth microdilution method.
Assay [7] concerns Aspergillus niger. The assay can be described thus: Antifungal activity against Aspergillus niger assessed as reduction in fungal cell growth incubated for 72 hrs by broth microdilution method.

On to `OC(Cn1cncn1)(Cn1nnc(CCN2CCN(c3ccc(Cl)cc3)CC2)n1)c1ccc(F)cc1F` (centres undefined), for which the MIC in assay [1], in assay [2], in assay [3], in assay [4], in assay [5] and in assay [6] was 1 to 16 µg/mL (≈ 1.89 to 30.2 µM) throughout. For the same compound, the MIC in assay [7] was 1 to 16 µg/mL (≈ 1.89 to 30.2 µM).
On to `C[C@H](n1nnnc1CCN1CCN(C(c2ccccc2)c2ccccc2)CC1)[C@](O)(Cn1cncn1)c1ccc(F)cc1F`, for which the MIC in assay [1], in assay [2], in assay [3], in assay [4], in assay [5] and in assay [6] was 0.12 to 16 µg/mL (≈ 0.2 to 26.7 µM) in each case. Also, the MIC in assay [7] was in the range of 0.12 to 16 µg/mL (≈ 0.2 to 26.7 µM).
For `CCCCOc1ccccc1N1CCN(CCc2nnn([C@@H](C)[C@](O)(Cn3cncn3)c3ccc(F)cc3F)n2)CC1`, the MIC in assay [1], in assay [2], in assay [3], in assay [4], in assay [5] and in assay [6] was 0.25 to 16 µg/mL (≈ 0.43 to 27.5 µM) each time. Further, in assay [7], the MIC is 0.25 to 16 µg/mL (≈ 0.43 to 27.5 µM).
Regarding `OC(Cn1cncn1)(Cn1nnc(CCN2CCN(Cc3ccccc3)CC2)n1)c1ccc(F)cc1F` (centres undefined), the MIC in assay [1], in assay [2], in assay [3], in assay [4], in assay [5] and in assay [6] was 1 to 16 µg/mL (≈ 1.96 to 31.4 µM) each time. For the same compound, the minimum inhibitory concentration (MIC) in assay [7] lay within 1 to 16 µg/mL (≈ 1.96 to 31.4 µM).
With `C[C@H](n1nnc(CCN2CCN(c3ccccc3)CC2)n1)[C@](O)(Cn1cncn1)c1ccc(F)cc1F`, the MIC in assay [1], in assay [2], in assay [3], in assay [4], in assay [5] and in assay [6] was 0.25 to 16 µg/mL (≈ 0.491 to 31.4 µM) in each case. The minimal inhibitory concentration (MIC) in assay [7] lay in the range of 0.25 to 16 µg/mL (≈ 0.491 to 31.4 µM).
With `CC(n1nnnc1CCN1CCN(c2c(Cl)cccc2Cl)CC1)C(O)(Cn1cncn1)c1ccc(F)cc1F` (centres undefined), the MIC in assay [1], in assay [2], in assay [3], in assay [4], in assay [5] and in assay [6] was 0.5 to 16 µg/mL (≈ 0.864 to 27.7 µM) each time. The MIC in assay [7] lay in the range of 0.5 to 16 µg/mL (≈ 0.864 to 27.7 µM).
Regarding `OC(Cn1cncn1)(Cn1nnnc1CCN1CCN(c2ccc(F)cc2)CC1)c1ccc(F)cc1F` (centres undefined), the MIC in assay [1], in assay [2], in assay [3], in assay [4], in assay [5] and in assay [6] was 0.5 to 16 µg/mL (≈ 0.974 to 31.2 µM) in each case. Also, the MIC in assay [7] was in the range of 0.5 to 16 µg/mL (≈ 0.974 to 31.2 µM).
As to `C[C@H](n1nnc(CCN2CCN(c3ccc([N+](=O)[O-])cc3)CC2)n1)[C@](O)(Cn1cncn1)c1ccc(F)cc1F`, the MIC in assay [1], in assay [2], in assay [3], in assay [4], in assay [5] and in assay [6] was 0.25 to 16 µg/mL (≈ 0.451 to 28.9 µM) in each case. Further, the MIC in assay [7] lay in the range of 0.25 to 16 µg/mL (≈ 0.451 to 28.9 µM).
On to `CCCCOc1ccccc1N1CCN(CCc2nnnn2[C@@H](C)[C@](O)(Cn2cncn2)c2ccc(F)cc2F)CC1`, for which the minimal inhibitory concentration (MIC) in assay [1], in assay [2], in assay [3], in assay [4], in assay [5] and in assay [6] was 0.12 to 16 µg/mL (≈ 0.206 to 27.5 µM) in each case. Besides, in assay [7], the MIC was in the range of 0.12 to 16 µg/mL (≈ 0.206 to 27.5 µM).
Consider `COc1ccccc1N1CCN(CCc2nnnn2[C@@H](C)[C@](O)(Cn2cncn2)c2ccc(F)cc2F)CC1`, for which the MIC in assay [1], in assay [2], in assay [3], in assay [4], in assay [5] and in assay [6] was 0.12 to 16 µg/mL (≈ 0.222 to 29.7 µM) each time. The MIC in assay [7] is 0.12 to 16 µg/mL (≈ 0.222 to 29.7 µM).
With `C[C@H](n1nnc(CCN2CCN(c3ccccc3Cl)CC2)n1)[C@](O)(Cn1cncn1)c1ccc(F)cc1F`, the MIC in assay [1], in assay [2], in assay [3], in assay [4], in assay [5] and in assay [6] was 0.25 to 16 µg/mL (≈ 0.46 to 29.4 µM) each time. In assay [7], the MIC was 0.25 to 16 µg/mL (≈ 0.46 to 29.4 µM).
`CC(n1nnc(CCN2CCN(c3ccc(Cl)cc3)CC2)n1)C(O)(Cn1cncn1)c1ccc(F)cc1F` (centres undefined): the MIC in assay [1], in assay [2], in assay [3], in assay [4], in assay [5] and in assay [6] was 1 to 16 µg/mL (≈ 1.84 to 29.4 µM) each time. In addition, in assay [7], the MIC lay in the range of 1 to 16 µg/mL (≈ 1.84 to 29.4 µM).
Consider `OC(Cn1cncn1)(Cn1nnnc1CCN1CCN(c2ccc(Cl)cc2)CC1)c1ccc(F)cc1F` (centres undefined), for which the MIC in assay [1], in assay [2], in assay [3], in assay [4], in assay [5] and in assay [6] was 0.5 to 16 µg/mL (≈ 0.943 to 30.2 µM) each time. Further, the MIC in assay [7] lay within 0.5 to 16 µg/mL (≈ 0.943 to 30.2 µM).
`CC(n1nnc(CCN2CCN(c3ccccc3Cl)CC2)n1)C(O)(Cn1cncn1)c1ccc(F)cc1F` (centres undefined): the MIC in assay [1], in assay [2], in assay [3], in assay [4], in assay [5] and in assay [6] was 1 to 16 µg/mL (≈ 1.84 to 29.4 µM) in each case. In addition, the MIC in assay [7] was 1 to 16 µg/mL (≈ 1.84 to 29.4 µM).
Consider `OC(Cn1cncn1)(Cn1nnnc1CCN1CCN(c2c(Cl)cccc2Cl)CC1)c1ccc(F)cc1F` (centres undefined), for which the MIC in assay [1], in assay [2], in assay [3], in assay [4], in assay [5] and in assay [6] was 0.5 to 16 µg/mL (≈ 0.886 to 28.3 µM) each time. Moreover, the MIC in assay [7] lay within 0.5 to 16 µg/mL (≈ 0.886 to 28.3 µM).
For `CC(n1nnc(CCN2CCN(c3ccccn3)CC2)n1)C(O)(Cn1cncn1)c1ccc(F)cc1F` (centres undefined), the minimal inhibitory concentration (MIC) in assay [1], in assay [2], in assay [3], in assay [4], in assay [5] and in assay [6] was 1 to 16 µg/mL (≈ 1.96 to 31.3 µM) throughout. The MIC in assay [7] fell in the range of 1 to 16 µg/mL (≈ 1.96 to 31.3 µM).
Take `CC(n1nnc(CCN2CCN(c3cccc(C(F)(F)F)c3)CC2)n1)C(O)(Cn1cncn1)c1ccc(F)cc1F` (centres undefined): the MIC in assay [1], in assay [2], in assay [3], in assay [4], in assay [5] and in assay [6] was 1 to 16 µg/mL (≈ 1.73 to 27.7 µM) in each case. In addition, in assay [7], the MIC fell in the range of 1 to 16 µg/mL (≈ 1.73 to 27.7 µM).
Turning to `CC(n1nnnc1CCN1CCN(c2ccccc2Cl)CC1)C(O)(Cn1cncn1)c1ccc(F)cc1F` (centres undefined), the MIC in assay [1], in assay [2], in assay [3], in assay [4], in assay [5] and in assay [6] was 0.5 to 16 µg/mL (≈ 0.919 to 29.4 µM) each time. Moreover, in assay [7], the MIC was 0.5 to 16 µg/mL (≈ 0.919 to 29.4 µM).
As to `O=[N+]([O-])c1ccc(N2CCN(CCc3nnn(CC(O)(Cn4cncn4)c4ccc(F)cc4F)n3)CC2)cc1` (centres undefined), the minimum inhibitory concentration (MIC) in assay [1], in assay [2], in assay [3], in assay [4], in assay [5] and in assay [6] was 1 to 16 µg/mL (≈ 1.85 to 29.6 µM) throughout. Besides, in assay [7], the MIC lay in the range of 1 to 16 µg/mL (≈ 1.85 to 29.6 µM).
For `COc1ccccc1N1CCN(CCc2nnn([C@@H](C)[C@](O)(Cn3cncn3)c3ccc(F)cc3F)n2)CC1`, the MIC in assay [1], in assay [2], in assay [3], in assay [4], in assay [5] and in assay [6] was 0.25 to 16 µg/mL (≈ 0.463 to 29.7 µM) throughout. For the same compound, the MIC in assay [7] lay within 0.25 to 16 µg/mL (≈ 0.463 to 29.7 µM).
For the compound `CC(n1nnc(CCN2CCN(c3c(Cl)cccc3Cl)CC2)n1)C(O)(Cn1cncn1)c1ccc(F)cc1F` (centres undefined), the MIC in assay [1], in assay [2], in assay [3], in assay [4], in assay [5] and in assay [6] was 1 to 16 µg/mL (≈ 1.73 to 27.7 µM) throughout. In addition, the MIC in assay [7] fell in the range of 1 to 16 µg/mL (≈ 1.73 to 27.7 µM).
For `C[C@H](n1nnc(CCN2CCN(c3ccccn3)CC2)n1)[C@](O)(Cn1cncn1)c1ccc(F)cc1F`, the MIC in assay [1], in assay [2], in assay [3], in assay [4], in assay [5] and in assay [6] was 0.25 to 16 µg/mL (≈ 0.49 to 31.3 µM) in each case. Also, in assay [7], the MIC lay in the range of 0.25 to 16 µg/mL (≈ 0.49 to 31.3 µM).
Take `CC(n1nnnc1CCN1CCN(c2ccc(Cl)cc2)CC1)C(O)(Cn1cncn1)c1ccc(F)cc1F` (centres undefined): the MIC in assay [1], in assay [2], in assay [3], in assay [4], in assay [5] and in assay [6] was 0.5 to 16 µg/mL (≈ 0.919 to 29.4 µM) in each case. Further, the MIC in assay [7] lay in the range of 0.5 to 16 µg/mL (≈ 0.919 to 29.4 µM).
Take `CC(n1nnnc1CCN1CCN(c2ccccc2)CC1)C(O)(Cn1cncn1)c1ccc(F)cc1F` (centres undefined): the MIC in assay [1], in assay [2], in assay [3], in assay [4], in assay [5] and in assay [6] was 0.5 to 16 µg/mL (≈ 0.981 to 31.4 µM) each time. In addition, the MIC in assay [7] fell in the range of 0.5 to 16 µg/mL (≈ 0.981 to 31.4 µM).
As to `CC(n1nnnc1CCN1CCN(C(c2ccccc2)c2ccccc2)CC1)C(O)(Cn1cncn1)c1ccc(F)cc1F` (centres undefined), the MIC in assay [1], in assay [2], in assay [3], in assay [4], in assay [5] and in assay [6] was 0.5 to 16 µg/mL (≈ 0.834 to 26.7 µM) each time. The minimal inhibitory concentration (MIC) in assay [7] lay in the range of 0.5 to 16 µg/mL (≈ 0.834 to 26.7 µM).
In the case of `CC(n1nnnc1CCN1CCN(c2cccc(C(F)(F)F)c2)CC1)C(O)(Cn1cncn1)c1ccc(F)cc1F` (centres undefined), the MIC in assay [1], in assay [2], in assay [3], in assay [4], in assay [5] and in assay [6] was 0.5 to 16 µg/mL (≈ 0.866 to 27.7 µM) throughout. In addition, the MIC in assay [7] lay within 0.5 to 16 µg/mL (≈ 0.866 to 27.7 µM).
In the case of `OC(Cn1cncn1)(Cn1nnc(CCN2CCN(c3ccc(F)cc3)CC2)n1)c1ccc(F)cc1F` (centres undefined), the MIC in assay [1], in assay [2], in assay [3], in assay [4], in assay [5] and in assay [6] was 1 to 16 µg/mL (≈ 1.95 to 31.2 µM) in each case. In addition, the MIC in assay [7] was in the range of 1 to 16 µg/mL (≈ 1.95 to 31.2 µM).

Broadly, the MIC is the least concentration at which growth counts as inhibited.

The record behind these values is ChEMBL document CHEMBL4393657, “Tetrazole hybrids and their antifungal activities” (2019).
